# Measured values taken from the supplement of paper PMC11208160.
# Test: recombinant UMI read abundance after kanamycin selection (control-corrected) (log10(CPM+1)); higher = more efficient recombination; extreme values may be limits of the assay; sequences stand for … in AGTGCAGAGAAAATCGGCCAGTTTTCTCTGCCTGCAGTCCGCATGCCGTGGGACCCCTTGGGTTCTAACCTGTTGCCTAGATTTATGCAGCGGACTGCCTTTCTCCCAAAGTGATAAACCGG…AGGTTGGTTTCACT; site = the 11-nt donor
# In short: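 Counts of recombinant UMIs were reported as log10(CPM+1). Before that, they were converted to CPM, averaged over replicates and scaled using control-derived factors. They came from PCR across the donor–target junction after Escherichia coli carrying the pair library and target plasmid was plated on IPTG (0.07 mM) plus kanamycin, or unselected, in two replicates each.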
# 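Further: IS621 bridge recombinase in Escherichia coli cells against a fixed T5 target plasmid.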
row,Sequence,recombinant UMI read abundance (log10)
1,TCAGACCCATGGACCGGTTTTCCCGGTAATCCGTATTTGGA (site TCAGACCCTTC),0.201
2,TCAGAGACATGGACCGGTTTTCCCGGTAATCCGTATTTGAG (site TCAGAGACTCA),0.02
3,TCAGAGACATGGACCGGTTTTCCCGGTAATCCGTATTTGAG (site TCAGAGACTCC),0.288
4,TCAGAGACATGGACCGGTTTTCCCGGTAATCCGTATTTGAG (site TCAGAGACTCG),0.938
5,TCAGAGACATGGACCGGTTTTCCCGGTAATCCGTATTTGAG (site TCAGAGACTCT),1.82
6,TCAGAGACATGGACCGGTTTTCCCGGTAATCCGTATTTGCG (site ACAGAGACTCG),1.11
7,TCAGAGACATGGACCGGTTTTCCCGGTAATCCGTATTTGCG (site CCAGAGACTCG),1.66
8,TCAGAGACATGGACCGGTTTTCCCGGTAATCCGTATTTGCG (site GCAGAGACTCG),0.00466
9,TCAGAGACATGGACCGGTTTTCCCGGTAATCCGTATTTGCG (site TAAGAGACTCG),1.02
10,TCAGAGACATGGACCGGTTTTCCCGGTAATCCGTATTTGCG (site TCAAAGACTCG),1.55
11,TCAGAGACATGGACCGGTTTTCCCGGTAATCCGTATTTGCG (site TCACAGACTCG),0.316
12,TCAGAGACATGGACCGGTTTTCCCGGTAATCCGTATTTGCG (site TCAGAAACTCG),1.73
13,TCAGAGACATGGACCGGTTTTCCCGGTAATCCGTATTTGCG (site TCAGACACTCG),0.327
14,TCAGAGACATGGACCGGTTTTCCCGGTAATCCGTATTTGCG (site TCAGAGACTAG),0.65
15,TCAGAGACATGGACCGGTTTTCCCGGTAATCCGTATTTGCG (site TCAGAGACTCA),0.943
16,TCAGAGACATGGACCGGTTTTCCCGGTAATCCGTATTTGCG (site TCAGAGACTCC),0.0212
17,TCAGAGACATGGACCGGTTTTCCCGGTAATCCGTATTTGCG (site TCAGAGACTCG),2.3
18,TCAGAGACATGGACCGGTTTTCCCGGTAATCCGTATTTGCG (site TCAGAGACTCT),0.0281
19,TCAGAGACATGGACCGGTTTTCCCGGTAATCCGTATTTGCG (site TCAGAGACTGG),0.387
20,TCAGAGACATGGACCGGTTTTCCCGGTAATCCGTATTTGCG (site TCAGAGACTTG),1.84
21,TCAGAGACATGGACCGGTTTTCCCGGTAATCCGTATTTGCG (site TCAGAGCCTCG),0.0106
22,TCAGAGACATGGACCGGTTTTCCCGGTAATCCGTATTTGCG (site TCAGAGGCTCG),1.98
23,TCAGAGACATGGACCGGTTTTCCCGGTAATCCGTATTTGCG (site TCAGAGTCTCG),1.37

row,Sequence,recombinant UMI read abundance (log10)
1,TCAGAGACATGGACCGGTTTTCCCGGTAATCCGTATTTGCG (site TCAGATACTCG),0.784
2,TCAGAGACATGGACCGGTTTTCCCGGTAATCCGTATTTGCG (site TCAGCGACTCG),0.00351
3,TCAGAGACATGGACCGGTTTTCCCGGTAATCCGTATTTGCG (site TCAGGGACTCG),0.0144
4,TCAGAGACATGGACCGGTTTTCCCGGTAATCCGTATTTGCG (site TCAGTGACTCG),0.0233
5,TCAGAGACATGGACCGGTTTTCCCGGTAATCCGTATTTGCG (site TCATAGACTCG),0.524
6,TCAGAGACATGGACCGGTTTTCCCGGTAATCCGTATTTGCG (site TCCGAGACTCG),0.462
7,TCAGAGACATGGACCGGTTTTCCCGGTAATCCGTATTTGCG (site TCGGAGACTCG),0.836
8,TCAGAGACATGGACCGGTTTTCCCGGTAATCCGTATTTGCG (site TCTGAGACTCG),0.346
9,TCAGAGACATGGACCGGTTTTCCCGGTAATCCGTATTTGCG (site TGAGAGACTCG),0.498
10,TCAGAGACATGGACCGGTTTTCCCGGTAATCCGTATTTGCG (site TTAGAGACTCG),1.56
11,TCAGAGGCATGGACCGGTTTTCCCGGTAATCCGTATTTGCG (site TCAGAGACTCG),0.431
12,TCAGAGGCATGGACCGGTTTTCCCGGTAATCCGTATTTGCG (site TCAGAGCCTCG),0.0967
13,TCAGAGGCATGGACCGGTTTTCCCGGTAATCCGTATTTGCG (site TCAGAGGCTCG),1.26
14,TCAGAGGCATGGACCGGTTTTCCCGGTAATCCGTATTTGCG (site TCAGAGTCTCG),2.18
15,TCAGGTACATGGACCGGTTTTCCCGGTAATCCGTATTTGCA (site TCAGGTACTTG),2.02
16,TCAGGTGCATGGACCGGTTTTCCCGGTAATCCGTATTTGAT (site ACAGGTGCTAT),0
17,TCAGGTGCATGGACCGGTTTTCCCGGTAATCCGTATTTGAT (site CCAGGTGCTAT),1.06
18,TCAGGTGCATGGACCGGTTTTCCCGGTAATCCGTATTTGAT (site GCAGGTGCTAT),0.018
19,TCAGGTGCATGGACCGGTTTTCCCGGTAATCCGTATTTGAT (site TCAGGTGCTAT),1.74
20,TCAGGTTCATGGACCGGTTTTCCCGGTAATCCGTATTTGGA (site TCAGGTTCTTC),2.16
21,TCAGTATCATGGACCGGTTTTCCCGGTAATCCGTATTTGCA (site ACAGTATCTTG),1.93
22,TCAGTATCATGGACCGGTTTTCCCGGTAATCCGTATTTGCA (site CCAGTATCTTG),2.06
23,TCAGTATCATGGACCGGTTTTCCCGGTAATCCGTATTTGCA (site GCAGTATCTTG),0.463

row,Sequence,recombinant UMI read abundance (log10)
1,TCAGTATCATGGACCGGTTTTCCCGGTAATCCGTATTTGCA (site TCAGTATCTTG),2.23
2,TCAGTATCATGGACCGGTTTTCCCGGTAATCCGTATTTGTA (site ACAGTATCTTG),0.377
3,TCAGTATCATGGACCGGTTTTCCCGGTAATCCGTATTTGTA (site TCAGTATCTTA),2.5
4,TCAGTCACATGGACCGGTTTTCCCGGTAATCCGTATTTGAG (site TCAGTCACTCT),0.702
5,TCAGTGACATGGACCGGTTTTCCCGGTAATCCGTATTTGCG (site TCAGAGACTCG),0.0602
6,TCAGTGACATGGACCGGTTTTCCCGGTAATCCGTATTTGCG (site TCAGCGACTCG),0.00331
7,TCAGTGACATGGACCGGTTTTCCCGGTAATCCGTATTTGCG (site TCAGGGACTCG),0.00386
8,TCAGTGACATGGACCGGTTTTCCCGGTAATCCGTATTTGCG (site TCAGTGACTCG),1.21
9,TCATACTCATGGACCGGTTTTCCCGGTAATCCGTATTTGCG (site TCATACTCTAG),0
10,TCATACTCATGGACCGGTTTTCCCGGTAATCCGTATTTGCG (site TCATACTCTCG),2.57
11,TCATACTCATGGACCGGTTTTCCCGGTAATCCGTATTTGCG (site TCATACTCTGG),0.0107
12,TCATACTCATGGACCGGTTTTCCCGGTAATCCGTATTTGCG (site TCATACTCTTG),2.1
13,TCATAGGCATGGACCGGTTTTCCCGGTAATCCGTATTTGAG (site TCATAGGCTCT),1.46
14,TCATCTTCATGGACCGGTTTTCCCGGTAATCCGTATTTGGT (site TCATCTTCTAC),0.467
15,TCATGACCATGGACCGGTTTTCCCGGTAATCCGTATTTGCC (site TCATGACCTGG),0
16,TCATGACCATGGACCGGTTTTCCCGGTAATCCGTATTTGCG (site TCATGACCTCG),0.00794
17,TCATGAGCATGGACCGGTTTTCCCGGTAATCCGTATTTGGG (site TAATGAGCTCC),0.0178
18,TCATGAGCATGGACCGGTTTTCCCGGTAATCCGTATTTGGG (site TCATGAGCTCC),0.0121
19,TCATGAGCATGGACCGGTTTTCCCGGTAATCCGTATTTGGG (site TGATGAGCTCC),0.00797
20,TCATGAGCATGGACCGGTTTTCCCGGTAATCCGTATTTGGG (site TTATGAGCTCC),0.00944
21,TCATGTCCATGGACCGGTTTTCCCGGTAATCCGTATTTGTG (site TCATGTCCTCA),0
22,TCATTCTCATGGACCGGTTTTCCCGGTAATCCGTATTTGCA (site TCATACTCTTG),1.25
